Measured values taken from paper PMC8550792, “Evolution of kinase polypharmacology across HSP90 drug discovery” (Cell Chemical Biology, 2021).

Columns and labels:
[1] = target: ABL1 (Homo sapiens, UniProt P00519); experiment: NanoBRET intracellular target engagement
[2] = target: T1, 382 unique human kinases (Homo sapiens, UniProt P08069); experiment: biochemical; type: biochemical; details: IGF1R, compound at 10 uM, duplicate values
T1 construct: purchased Reaction Biology (HotSpot contract assay)
T1 sequence (P08069 31-1367): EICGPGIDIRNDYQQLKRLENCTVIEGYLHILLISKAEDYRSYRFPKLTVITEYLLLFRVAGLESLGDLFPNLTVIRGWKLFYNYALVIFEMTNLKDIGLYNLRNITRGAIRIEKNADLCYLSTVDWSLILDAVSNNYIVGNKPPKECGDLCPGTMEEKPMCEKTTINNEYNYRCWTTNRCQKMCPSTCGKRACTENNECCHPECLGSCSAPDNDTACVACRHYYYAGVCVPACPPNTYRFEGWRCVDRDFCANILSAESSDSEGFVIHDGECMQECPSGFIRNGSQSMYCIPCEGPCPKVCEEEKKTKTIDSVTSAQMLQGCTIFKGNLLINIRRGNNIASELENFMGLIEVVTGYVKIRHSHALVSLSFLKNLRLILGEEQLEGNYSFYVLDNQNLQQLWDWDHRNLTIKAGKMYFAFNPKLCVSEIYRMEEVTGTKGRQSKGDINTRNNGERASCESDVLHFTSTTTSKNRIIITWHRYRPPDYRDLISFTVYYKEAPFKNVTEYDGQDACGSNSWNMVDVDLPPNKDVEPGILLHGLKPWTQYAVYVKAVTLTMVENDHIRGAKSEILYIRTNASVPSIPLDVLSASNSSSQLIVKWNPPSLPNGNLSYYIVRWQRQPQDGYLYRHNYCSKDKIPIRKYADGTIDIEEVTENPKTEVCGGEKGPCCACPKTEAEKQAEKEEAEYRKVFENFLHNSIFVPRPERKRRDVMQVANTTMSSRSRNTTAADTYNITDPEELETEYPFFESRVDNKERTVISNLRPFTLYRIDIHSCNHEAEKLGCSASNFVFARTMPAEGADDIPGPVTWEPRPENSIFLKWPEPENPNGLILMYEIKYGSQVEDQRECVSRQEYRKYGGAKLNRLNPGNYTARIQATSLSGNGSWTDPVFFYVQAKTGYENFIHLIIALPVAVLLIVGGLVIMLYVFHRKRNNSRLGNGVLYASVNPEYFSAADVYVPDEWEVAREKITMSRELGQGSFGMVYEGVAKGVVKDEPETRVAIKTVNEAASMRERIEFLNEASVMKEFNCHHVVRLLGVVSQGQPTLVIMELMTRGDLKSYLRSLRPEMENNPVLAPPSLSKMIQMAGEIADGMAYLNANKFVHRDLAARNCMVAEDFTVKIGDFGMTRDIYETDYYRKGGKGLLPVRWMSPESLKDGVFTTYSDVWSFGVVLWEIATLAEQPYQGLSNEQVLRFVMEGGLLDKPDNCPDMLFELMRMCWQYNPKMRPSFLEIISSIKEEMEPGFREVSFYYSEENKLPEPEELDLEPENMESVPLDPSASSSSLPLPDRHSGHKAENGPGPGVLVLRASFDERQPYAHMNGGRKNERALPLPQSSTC

ABL1, sequence (P00519 whole entry): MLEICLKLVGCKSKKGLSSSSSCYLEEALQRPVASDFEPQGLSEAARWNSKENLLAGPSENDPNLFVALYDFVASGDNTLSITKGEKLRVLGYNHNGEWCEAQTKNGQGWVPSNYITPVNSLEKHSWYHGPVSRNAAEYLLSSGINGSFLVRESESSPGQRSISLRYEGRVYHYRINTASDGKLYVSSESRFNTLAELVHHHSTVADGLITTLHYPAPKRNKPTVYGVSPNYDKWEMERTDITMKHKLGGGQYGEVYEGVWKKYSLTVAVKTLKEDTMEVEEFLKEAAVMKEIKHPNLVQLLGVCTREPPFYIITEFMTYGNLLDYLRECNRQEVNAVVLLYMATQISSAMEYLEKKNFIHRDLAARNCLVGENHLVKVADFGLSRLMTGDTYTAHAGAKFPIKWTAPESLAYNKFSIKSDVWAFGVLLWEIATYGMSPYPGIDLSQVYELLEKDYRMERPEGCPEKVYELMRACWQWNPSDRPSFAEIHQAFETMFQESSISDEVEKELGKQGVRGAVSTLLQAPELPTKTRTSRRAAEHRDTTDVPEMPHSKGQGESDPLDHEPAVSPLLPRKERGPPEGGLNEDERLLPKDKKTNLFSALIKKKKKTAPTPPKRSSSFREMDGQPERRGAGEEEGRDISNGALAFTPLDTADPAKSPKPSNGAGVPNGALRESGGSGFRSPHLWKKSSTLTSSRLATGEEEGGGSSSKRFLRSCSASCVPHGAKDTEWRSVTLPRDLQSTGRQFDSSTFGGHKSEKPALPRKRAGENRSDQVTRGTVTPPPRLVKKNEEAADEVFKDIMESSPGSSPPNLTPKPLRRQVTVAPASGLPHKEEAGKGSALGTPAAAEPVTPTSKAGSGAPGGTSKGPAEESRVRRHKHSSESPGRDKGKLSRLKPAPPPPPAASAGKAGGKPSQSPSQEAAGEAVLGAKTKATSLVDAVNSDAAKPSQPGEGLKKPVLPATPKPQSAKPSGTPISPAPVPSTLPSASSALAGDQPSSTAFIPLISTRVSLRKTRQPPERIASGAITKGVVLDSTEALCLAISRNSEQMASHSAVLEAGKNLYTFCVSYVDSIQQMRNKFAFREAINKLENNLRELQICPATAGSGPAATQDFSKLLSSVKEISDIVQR

SMILES | EC50 [1] [µM] | remaining activity at 100 µM ([1]; HEK293, read-out: %Normalized Bret Response, ABL1 NanoBRET, HEK293, Drug Conc. 0.0001 M) [%] | % Enzyme Activity (relative to DMSO controls) [2] [%] | remaining activity at 10 µM ([2]; read-out: % Enzyme Activity (relative to DMSO controls)) [%]
CC(C)c1cc(-c2n[nH]c(=O)n2-c2ccc3c(ccn3C)c2)c(O)cc1O [Ganetespib] | 82.9 | 41.3 |  | 
CCNC(=O)c1noc(-c2cc(C(C)C)c(O)cc2O)c1-c1ccc(CN2CCOCC2)cc1 [Luminespib (AUY-922)] |  |  | 104.49 | 106
